Assay results from patent US10780090B2, “Heteroaryl compounds useful as inhibitors of SUMO activating enzyme” (Millennium Pharmaceuticals, Inc., priority 2014, dated 2020).

Target: recombinant human SAE enzyme (Homo sapiens (Human), UniProt Q9UBT2)
Experiment: SAE HTRF enzyme assay
Type: biochemical
Conditions: for inhibition at 0.111 µM: read-out: Percent Inhibition
Method: Example 215: SAE HTRF enzyme assay
The SAE enzymatic reaction totals 50 μl and contains 50 mM HEPES Hemisodium (pH 7.5), 0.05% BSA, 5 mM MgCl2, 0.5 μM ATP, 250 μM GSH, 0.01 μM Ubc9-GST, 0.125 μM Sumo-Flag and 0.11 nM recombinant human SAE enzyme. The enzymatic reaction mixture, with and without inhibitor, Is incubated at 24° C. for 105 min in a 384-well plate before termination with […] of Stop/Detection buffer (0.1M HEPES Hemisodium pH 7.5, 0.05% Tween20, 20 mM EDTA, 410 mM KF, 0.53 nM Europium-Cryptate labeled monoclonal anti-Flag M2 Antibody (CisBio International) and 8.125 μg/ml PHYCOLINK goat anti-GST allophycocyanin (XL-APC) antibody (Prozyme)). After incubation for 2 hours at 24° C., quantification of FRET is performed on the Pherostar™ (BMG Labtech). Percentage inhibition values at a single concentration or enzyme inhibition (IC50) values are determined from those curves. One skilled in the art will appreciate that the values generated either as percentage inhibition at a single concentration or IC50 values are subject to experimental variation.

[1] = SAE inhibition at compound concentration 0.111 μM
[2] = SAE inhibition, class symbols, legend in nM

Chain of recombinant human SAE enzyme (Q9UBT2 whole entry): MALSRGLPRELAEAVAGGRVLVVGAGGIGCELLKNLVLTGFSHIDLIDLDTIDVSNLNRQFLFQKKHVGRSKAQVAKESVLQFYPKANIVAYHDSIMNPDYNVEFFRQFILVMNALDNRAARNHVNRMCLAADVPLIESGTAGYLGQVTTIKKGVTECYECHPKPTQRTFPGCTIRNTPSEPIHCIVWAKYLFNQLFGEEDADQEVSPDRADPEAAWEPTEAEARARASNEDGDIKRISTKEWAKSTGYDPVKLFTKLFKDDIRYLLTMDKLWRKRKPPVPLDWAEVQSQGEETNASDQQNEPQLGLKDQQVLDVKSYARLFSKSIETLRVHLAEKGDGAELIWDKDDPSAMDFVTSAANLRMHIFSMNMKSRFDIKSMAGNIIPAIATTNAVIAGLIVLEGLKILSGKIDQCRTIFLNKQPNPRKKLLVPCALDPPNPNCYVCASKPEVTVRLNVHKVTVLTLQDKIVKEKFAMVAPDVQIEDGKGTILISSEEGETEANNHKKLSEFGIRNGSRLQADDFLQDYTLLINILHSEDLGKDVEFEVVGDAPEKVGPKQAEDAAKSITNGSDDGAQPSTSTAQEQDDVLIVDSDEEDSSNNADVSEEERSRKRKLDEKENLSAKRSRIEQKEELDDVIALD
Chain of recombinant human SAE enzyme (Q9UBE0 whole entry partner): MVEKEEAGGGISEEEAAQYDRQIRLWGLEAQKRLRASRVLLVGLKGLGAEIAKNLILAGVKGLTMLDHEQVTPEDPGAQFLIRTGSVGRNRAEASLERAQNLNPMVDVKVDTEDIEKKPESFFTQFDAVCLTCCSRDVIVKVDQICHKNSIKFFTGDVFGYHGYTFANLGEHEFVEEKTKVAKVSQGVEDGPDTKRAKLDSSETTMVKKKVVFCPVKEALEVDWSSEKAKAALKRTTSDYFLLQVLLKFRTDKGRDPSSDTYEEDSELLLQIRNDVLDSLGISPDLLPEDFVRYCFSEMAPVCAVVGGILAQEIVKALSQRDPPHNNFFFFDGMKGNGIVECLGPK

Row | Structure (SMILES) | Percent Inhibition [1] [%] | IC50 [2] [nM] | Percent Inhibition (Concentration 0.111 μM) | IC50 (class symbols A/B/C) [nM] | inhibition at 0.111 µM (Concentration 0.111 μM) [%]
1 | C[C@@]1(c2csc(C(=O)c3cncnc3N[C@@H]3C[C@H](COS(N)(=O)=O)[C@@H](O)C3)c2)NCCc2ccc(Cl)cc21 (mixture of isomers) [I-321, [(1R,2S,4R)-4-{[5-({4-[(1R)-7-chloro-1-methyl-1,2,3,4-tetrahydroisoquinolin-1-yl]-2-thienyl}carbonyl)pyrimidin-4-yl]amino}-2-hydroxycyclopentyl]methyl sulfamate and [(1R,2S,4R)-4-{[5-({4-[(1S)-7-chloro-1-methyl-1,2,3,4-tetrahydroisoquinolin-1-yl]-2-thienyl}carbonyl)pyrimidin-4-yl]amino}-2-hydroxycyclopentyl]methyl sulfamate] | 94 | < 10 | – | – | –
2 | COc1ccc2c(n1)[C@H](c1cc(C(=O)c3cncnc3N[C@@H]3C[C@H](COS(N)(=O)=O)[C@@H](O)C3)sc1C)OCC2 (single isomer, unassigned) [I-339b, [(1R,2S,4R)-2-hydroxy-4-{[5-({4-[(8S)-2-methoxy-5,8-dihydro-6H-pyrano[3,4-b]pyridin-8-yl]-5-methyl-2-thienyl}carbonyl)pyrimidin-4-yl]amino}cyclopentyl]methyl sulfamate or [(1R,2S,4R)-2-hydroxy-4-{[5-({4-[(8R)-2-methoxy-5,8-dihydro-6H-pyrano[3,4-b]pyridin-8-yl]-5-methyl-2-thienyl}carbonyl)pyrimidin-4-yl]amino}cyclopentyl]methyl sulfamate] | 94 | < 10 | – | – | –
3 | NS(=O)(=O)OCC1CC(Nc2ncncc2C(=O)c2cc(C(O)c3cccc(Cl)n3)cs2)CC1O (mixture of isomers) [I-29, [(1R,2S,4R)-4-({5-[{4-[(S)-(6-Chloropyridin-2-yl)(hydroxy)methyl]-2-thienyl}carbonyl)pyrimidin-4-yl]amino}-2-hydroxycyclopentyl]methyl sulfamate and [(1R,2S,4R)-4-{[5-({4-[(R)-(6-Chloropyridin-2-yl)(hydroxy)methyl]-2-thienyl}carbonyl)pyrimidin-4-yl]amino}-2-hydroxycyclopentyl]methyl sulfamate] | – | – | 100 | < 10 | –
4 | NS(=O)(=O)OC[C@H]1C[C@@H](Nc2ncncc2C(=O)c2cc([C@H](O)C3CCCCC3)c(Cl)s2)C[C@@H]1O (mixture of isomers) [I-172, [(1R,2S,4R)-4-{[5-({5-chloro-4-[(R)-cyclohexyl(hydroxy)methyl]-2-thienyl}carbonyl)pyrimidin-4-yl]amino}-2-hydroxycyclopentyl]methyl sulfamate and [(1R,2S,4R)-4-{[5-({5-chloro-4-[(S)-cyclohexyl(hydroxy)methyl]-2-thienyl}carbonyl)pyrimidin-4-yl]amino}-2-hydroxycyclopentyl]methyl sulfamate] | – | – | 88 | 10 to 100 | –
5 | Cc1sc(C(=O)c2cncnc2N[C@@H]2C[C@H](COS(N)(=O)=O)[C@@H](O)C2)cc1[C@@H]1NCCc2ccc(Cl)cc21 [I-263a, [(1R,2S,4R)-4-[[5-[4-[(1R)-7-chloro-1,2,3,4-tetrahydroisoquinolin-1-yl]-5-methyl-thiophene-2-carbonyl]pyrimidin-4-yl]amino]-2-hydroxy-cyclopentyl]methyl sulfamate] | – | – | – | < 10 | 101
6 | Cc1sc(C(=O)c2cncnc2N[C@@H]2C[C@H](COS(N)(=O)=O)[C@@H](O)C2)cc1[C@H]1OCC(F)(F)c2ccc(Cl)nc21 (mixture of isomers) [I-260, [(1R,2S,4R)-4-{[5-({4-[(8R)-2-chloro-5,5-difluoro-5,8-dihydro-6H-pyrano[3,4-b]pyridin-8-yl]-5-methyl-2-thienyl}carbonyl)pyrimidin-4-yl]amino}-2-hydroxycyclopentyl]methyl sulfamate and [(1R,2S,4R)-4-{[5-({4-[(8S)-2-chloro-5,5-difluoro-5,8-dihydro-6H-pyrano[3,4-b]pyridin-8-yl]-5-methyl-2-thienyl}carbonyl)pyrimidin-4-yl]amino}-2-hydroxycyclopentyl]methyl sulfamate] | – | – | 98 | < 10 | –
7 | CN(Cc1csc(C(=O)c2cncnc2N[C@@H]2C[C@H](COS(N)(=O)=O)[C@@H](O)C2)c1)c1cccc(Cl)c1 [I-138, [(1R,2S,4R)-4-({5-[(4-{[(3-Chlorophenyl)(methyl)amino]methyl}-2-thienyl)carbonyl]pyrimidin-4-yl}amino)-2-hydroxycyclopentyl]methyl sulfamate] | – | – | – | < 10 | 96
8 | NS(=O)(=O)OC[C@H]1C[C@@H](Nc2ncncc2C(=O)c2cc([C@@H]3NCCc4ccc(Br)cc43)c(Cl)s2)[C@H](O)[C@@H]1O (single isomer, unassigned) [I-259a, [(1R,2R,3S,4R)-4-{[5-({4-[(1R)-7-bromo-1,2,3,4-tetrahydroisoquinolin-1-yl]-5-chloro-2-thienyl}carbonyl)pyrimidin-4-yl]amino}-2,3-dihydroxycyclopentyl]methyl sulfamate or [(1R,2R,3S,4R)-4-{[5-({4-[(1S)-7-bromo-1,2,3,4-tetrahydroisoquinolin-1-yl]-5-chloro-2-thienyl}carbonyl)pyrimidin-4-yl]amino}-2,3-dihydroxycyclopentyl]methyl sulfamate] | – | – | 100 | < 10 | –
9 | NS(=O)(=O)OC[C@H]1C[C@@H](Nc2ncncc2C(=O)c2cc(C3SCCc4ccc(Cl)cc43)cs2)C[C@@H]1O (single isomer, unassigned) [I-320a, [(1R,2S,4R)-4-{[5-({4-[(1R)-7-chloro-3,4-dihydro-1H-isothiochromen-1-yl]-2-thienyl}carbonyl)pyrimidin-4-yl]amino}-2-hydroxycyclopentyl]methyl sulfamate or [(1R,2S,4R)-4-{[5-({4-[(1S)-7-chloro-3,4-dihydro-1H-isothiochromen-1-yl]-2-thienyl}carbonyl)pyrimidin-4-yl]amino}-2-hydroxycyclopentyl]methyl sulfamate] | 27 | 100 to 1000 | – | – | –
10 | Cc1nc2c(s1)[C@H](c1cc(C(=O)c3cncnc3N[C@@H]3C[C@H](COS(N)(=O)=O)[C@@H](O)C3)sc1C)OCC2 (single isomer, unassigned) [I-305a, [(1R,2S,4R)-2-hydroxy-4-{[5-({5-methyl-4-[(4S)-2-methyl-6,7-dihydro-4H-pyrano[4,3-d][1,3]thiazol-4-yl]-2-thienyl}carbonyl)pyrimidin-4-yl]amino}cyclopentyl]methyl sulfamate or [(1R,2S,4R)-2-hydroxy-4-{[5-({5-methyl-4-[(4R)-2-methyl-6,7-dihydro-4H-pyrano[4,3-d][1,3]thiazol-4-yl]-2-thienyl}carbonyl)pyrimidin-4-yl]amino}cyclopentyl]methyl sulfamate] | 28 | 100 to 1000 | – | – | –
11 | Cc1sc(C(=O)c2cncnc2N[C@@H]2C[C@H](COS(N)(=O)=O)[C@@H](O)C2)cc1[C@@H]1OCCc2ccc(Cl)nc21 (mixture of isomers) [I-286, [(1R,2S,4R)-4-{[5-({4-[(8S)-2-chloro-5,8-dihydro-6H-pyrano[3,4-b]pyridin-8-yl]-5-methyl-2-thienyl}carbonyl)pyrimidin-4-yl]amino}-2-hydroxycyclopentyl]methyl sulfamate and [(1R,2S,4R)-4-{[5-({4-[(8R)-2-chloro-5,8-dihydro-6H-pyrano[3,4-b]pyridin-8-yl]-5-methyl-2-thienyl}carbonyl)pyrimidin-4-yl]amino}-2-hydroxycyclopentyl]methyl sulfamate] | 99 | < 10 | – | – | –
12 | Cc1sc(C(=O)c2cncnc2N[C@@H]2C[C@H](COS(N)(=O)=O)[C@@H](O)C2)nc1C1OCCc2ccc(Cl)cc21 (single isomer, unassigned) [I-300a, [(1R,2S,4R)-4-{[5-({4-[(1R)-7-chloro-3,4-dihydro-1H-isochromen-1-yl]-5-methyl-1,3-thiazol-2-yl}carbonyl)pyrimidin-4-yl]amino}-2-hydroxycyclopentyl]methyl sulfamate or [(1R,2S,4R)-4-{[5-({4-[(1S)-7-chloro-3,4-dihydro-1H-isochromen-1-yl]-5-methyl-1,3-thiazol-2-yl}carbonyl)pyrimidin-4-yl]amino}-2-hydroxycyclopentyl]methyl sulfamate] | 26 | 100 to 1000 | – | – | –
13 | N[C@H](c1cccc(Br)c1)c1cc(C(=O)c2cncnc2N[C@@H]2C[C@H](COS(N)(=O)=O)[C@@H](O)C2)sc1Cl (single isomer, unassigned) [I-22b, [(1R,2S,4R)-4-{[5-({4-[(R)-amino(3-bromophenyl)methyl]-5-chloro-2-thienyl}carbonyl)pyrimidin-4-yl]amino}-2-hydroxycyclopentyl]methyl sulfamate or [(1R,2S,4R)-4-{[5-({4-[(S)-amino(3-bromophenyl)methyl]-5-chloro-2-thienyl}carbonyl)pyrimidin-4-yl]amino}-2-hydroxycyclopentyl]methyl sulfamate] | – | – | 99 | < 10 | –
